Experimental data: publication PMC11166458, “Caskin2 is a novel talin- and Abi1-binding protein that promotes cell motility” (Journal of Cell Science, 2024)
No end group written: not given here.

What was measured:
[1] = system: talin-R7R8 (residues 1358–1653), R8 domain; test: X-ray structure of talin-R7R8 in complex with Caskin2-LD peptide, interface analysis; assay type: binding, murine; settings: electron density map; 1:2 molar ratio of protein to peptide
Experimental: A codon-optimized synthetic gene encoding murine talin-R7/R8 domains (residues 1358–1653) was cloned into the pETNKI-6xhis-3C-LIC vector ([Luna-Vargas et al., 2011]). The 6×his–3C–talin-R7/R8 protein was expressed in Bl21(DE3) cells, for 18 h at 20°C upon induction with 0.4 mM IPTG. Cells were harvested by centrifugation (4000 g for 15 min) and stored at −20°C. After thawing, cells were resuspended in lysis buffer [25 mM Tris-HCl pH 8.0, 10 mM imidazole, 200 mM NaCl, 1 mM TCEP and 5 μg/ml DNase (Roche)] and lysed by sonication. The soluble lysate fractions were collected after centrifugation (55,000 g at 4°C for 30 min) and applied to a nickel Sepharose column. Beads were washed with wash buffer (lysis buffer without DNase) and protein was eluted in the same buffer supplemented with 250 mM imidazole. The 6×His tag was cleaved off by his-3C protease during dialysis against 25 mM Tris-HCl pH 8.0, 100 mM NaCl, 1 mM TCEP for 16 h at 4°C. The protein solution was diluted with an equal volume of 25 mM Tris-HCl pH 8.0, 1 mM TCEP before his-3C protease and uncleaved 6×his–talin-R7/R8 were removed by nickel Sepharose. The protein was further purified by anion exchange chromatography (Resource Q column, Cytiva) followed by size exclusion chromatography (S75 Superdex 16/60, Cytiva) in 25 mM Tris-HCl pH 8.0, 100 mM NaCl, 1 mM TCEP. Talin-R7/R8 eluted in a single peak. […]

MCF7 cells = test: Caskin2–talin colocalization in MCF7 cells (Pearson's correlation); assay type: cell-based, Human; settings: blebbistatin 10 µM, 20 µM for 45 min (Fig. S3B)
Experimental: PA-JEB/β4 keratinocytes were seeded on glass coverslips and cultured for 24 h in complete KGM, and then continued to be cultured for a further 16 h in DMEM with 10% FCS. GE11^tetONβ1 and MCF7 cells were seeded on glass coverslips and cultured for 24 h in DMEM with 10% FCS. Cells were fixed in 2% paraformaldehyde and permeabilized with 0.2% Triton X-100 for 5 min, blocked with PBS containing 2% bovine serum albumin (BSA; Sigma-Aldrich) for 45 min and subsequently incubated with primary and secondary antibodies for 1 h. In between antibody steps, the coverslips were washed three times with PBS. Actin fibers were visualized by staining with Phalloidin–Alexa Fluor 647 (Cell Signaling Technology). Nuclei were stained with DAPI. Samples were mounted on glass slides in Mowiol after three washing steps with PBS. Images were acquired with a Leica TCS SP5 confocal microscope with a 63× (NA 1.4) oil objective. Software for image acquisition is Leica LAS AF 3.0.2 ([Wang et al., 2020b]).
Imaging analysis was performed using FIJI software ([Schindelin et al., 2012]). The levels of colocalization between Caskin2 and various other proteins, including integrin β4, FA proteins and CMSC components, was performed using Pearson's co-efficient analysis in the JACoP module of ImageJ ([Carisey et al., 2013]; [Wang et al., 2020b]).

Compound | binding to talin-R8 in crystal structure [1] | overall Caskin2–talin colocalization (MCF7 cells)
Caskin2-LD peptide: C-terminal LD motif peptide of Caskin2 (residues 1187–1202) (STMFDALADQLDAMLD; also: Atto488 label) | clear binding of the Caskin2-LD peptide to the R8 motif | 
Cc1ccc2c(c1)C(=O)C1(O)CCN(c3ccccc3)C1=N2 (centres unmarked) [blebbistatin] |  | increased overall Caskin2–talin colocalization
